# What was measured:
# [1] = tested on: PSA; experiment: Western blot to detect PSA in LNCaP cells; assay type: cell-based, human; conditions: 24 hrs
# Protocol: The cells were harvested, washed and total cellular proteins were extracted as described previously (as Example 2). Fifty μg proteins were then subjected to electrophoresis in SDS-PAGE, electro-transferred to nitrocellulose filters, and immunoblotted initially with antibodies against AR, Sp1, and PSA. The same membranes were stripped and re-probed with β-actin for loading control. The result was recorded by ECL films.
# [2] = tested on: B16 mouse melanoma cells; experiment: MTT cell growth inhibition, B16 melanoma; assay type: cell-based
# Protocol: B16 mouse melanoma cells at exponential growth phase were digested by 0.25% trypsin, adjusted to the density of 3˜5×10^4/mL by adding the above working RPMI 1640 medium, sed into 96-well dishes at 150 μl per well, under normal culture conditions mentioned above. […] Equal volume of the working RPMI 1640 medium was added into the wells of the control group. Each group had four wells. After incubation, discarded the supernatant, added 150 μl D-Hanks per well, washed, discarded the supernatant. After adding 100 μl MTT (0.5 mg/mL), incubated for another 4 hrs. Discarded the supernatant, added 150 μl DMSO, kept at 37° C. for 10 mins. Absorbance was measured at wavelength of 570 nm.
structure (smiles),measurement,setting,value
"S=C=NCCc1ccccc1 [PEITC, phenethyl isothiocyanate]",expression of PSA (Western blot),[1],significantly inhibited
same,IC50,[2]; B16 mouse melanoma cell line,10 to 20 µM
same,inhibition at 2.5 µM,"[2]; Mus musculus, B16, 48 h, 2.5 μmol/L, 48 h, B16",14.5%
same,inhibition at 5 µM,"[2]; Mus musculus, B16, 48 h, 5.0 μmol/L, 48 h, B16",27.9%
same,inhibition at 7.5 µM,"[2]; Mus musculus, B16, 48 h, 7.5 μmol/L, 48 h, B16",36.7%
same,inhibition at 10 µM,"[2]; Mus musculus, B16, 48 h, 10.0 μmol/L, 48 h, B16",49.2%
same,inhibition at 12.5 µM,"[2]; Mus musculus, B16, 48 h, 12.5 μmol/L, 48 h, B16",58.4%
same,inhibition at 15 µM,"[2]; Mus musculus, B16, 48 h, 15.0 μmol/L, 48 h, B16",63.7%
same,inhibition at 20 µM,"[2]; Mus musculus, B16, 48 h, 20.0 μmol/L, 48 h, B16",77.3%
same,inhibition at 30 µM,"[2]; Mus musculus, B16, 48 h, 30.0 μmol/L, 48 h, B16",89.6%
same,inhibition at 40 µM,"[2]; Mus musculus, B16, 48 h, 40.0 μmol/L, 48 h, B16",> 96%

# — patent publication US8410170B2, “Use of isothiocyanates compounds in treating prostatic diseases and skin cancer” (Wuxi JC Pharmaceutical Technology Co., Ltd., priority 2005, dated 2013)
